Values joined by “and” are separate entries in the source; they are usually repeats but may differ in a detail not shown here. Equal entries are not always repeated. Inconclusive results and toxic doses are left out.
System: P388 leukemia ip, CD2F1 mice, survival T/C
Experiment: NCI In Vivo Anticancer Drug Screen. Data for tumor model P388 Leukemia (intraperitoneal) in CD2F1 (CDF1) mice
Conditions: endpoint: median survival time, higher = longer survival
Experimental: The antitumor activity of compounds was measured in mice bearing transplantable tumors. Survival or tumor size were measured and the results are expressed as the measurement made in the treated group (T) divided by the measurement made in the vehicle treated control group (C). The tumor model used in this assay is P388 Leukemia (intraperitoneal) in CD2F1 (CDF1) mice

[1] = dose: 25.0 mg/kg/injection, schedule: Q01DX009 (ip), vehicle: Klucel (hydroxypropylcellulose) (HPC)
[2] = dose: 50.0 mg/kg/injection, schedule: Q01DX009 (ip), vehicle: Klucel (hydroxypropylcellulose) (HPC)
[3] = dose: 50.0 mg/kg/injection, schedule: Q01DX009 (ip), vehicle: saline with Tween-80
[4] = dose: 100.0 mg/kg/injection, schedule: Q01DX009 (ip), vehicle: saline with Tween-80
[5] = dose: 200.0 mg/kg/injection, schedule: Q01DX009 (ip), vehicle: saline with Tween-80
[6] = dose: 60.0 mg/kg/injection, schedule: Q01DX005 (ip), vehicle: saline with Tween-80
[7] = dose: 120.0 mg/kg/injection, schedule: Q01DX005 (ip), vehicle: saline with Tween-80
[8] = dose: 240.0 mg/kg/injection, schedule: Q01DX005 (ip), vehicle: saline with Tween-80
[9] = dose: 50.0 mg/kg/injection, schedule: Q01DX005 (ip), vehicle: Klucel (hydroxypropylcellulose) (HPC)
[10] = dose: 100.0 mg/kg/injection, schedule: Q01DX005 (ip), vehicle: Klucel (hydroxypropylcellulose) (HPC)
[11] = dose: 200.0 mg/kg/injection, schedule: Q01DX005 (ip), vehicle: Klucel (hydroxypropylcellulose) (HPC)

In the case of O=C(Nc1ccc(N=Nc2ccc(S(=O)(=O)O)cc2)cc1)c1ccc(N=Nc2c(S(=O)(=O)O)cc(O)c3c(NC(=O)c4ccccc4)cc(S(=O)(=O)O)cc23)cc1, the T/C (dose: 50.0 mg/kg/injection, schedule: Q01DX005 (ip), vehicle: saline with Tween-80) is reported as 95 % of control, the T/C (dose: 100.0 mg/kg/injection, schedule: Q01DX005 (ip), vehicle: saline with Tween-80) is reported as 93 % of control and the T/C (dose: 200.0 mg/kg/injection, schedule: Q01DX005 (ip), vehicle: saline with Tween-80) is reported as 95 % of control.

With CN=C(NC(C)C)c1ccc(NC(=O)c2ccc(C(=O)Nc3ccc(C(=NC)NC(C)C)cc3)cc2)cc1 the T/C (dose: 32.0 mg/kg/injection, schedule: Q01DX009 (ip), vehicle: saline) was 122 % of control, the T/C (dose: 64.0 mg/kg/injection, schedule: Q01DX009 (ip), vehicle: saline) was 109 % of control and the T/C (dose: 96.0 mg/kg/injection, schedule: Q04DX003 (ip), vehicle: saline with Tween-80) was 154 % of control.

With Nc1nc(-c2ccc([N+](=O)[O-])cc2)cc(-c2cc(-c3ccc([N+](=O)[O-])cc3)nc(N)n2)n1 the T/C (dose: 60.0 mg/kg/injection, schedule: Q01DX005 (ip), vehicle: Klucel (hydroxypropylcellulose) (HPC)) was 87 % of control, the T/C (dose: 120.0 mg/kg/injection, schedule: Q01DX005 (ip), vehicle: Klucel (hydroxypropylcellulose) (HPC)) was 89 % of control and the T/C (dose: 240.0 mg/kg/injection, schedule: Q01DX005 (ip), vehicle: Klucel (hydroxypropylcellulose) (HPC)) was 94 % of control.

OC1(c2ccccc2C(O)(C(F)(F)F)C(F)(F)F)OC(C(F)(F)F)(C(F)(F)F)c2ccccc21 (stereo unspecified) was tested, and the T/C (dose: 12.5 mg/kg/injection, schedule: Q01DX009 (ip), vehicle: Klucel (hydroxypropylcellulose) (HPC)) was 101 % of control, the T/C [1] was 99 % of control and the T/C [2] was 99 % of control.

Nc1ccccc1C(=O)NCCCCCCN1CCN(c2cccc(Cl)c2)CC1 was tested, and the T/C [3] was 92 % of control, the T/C [4] was 90 % of control and the T/C [5] was 96 % of control.

In the case of O=c1cc(-c2ccccc2)nc2cc(-c3ccco3)[nH]n12, the T/C [6] is reported as 102 % of control, the T/C [7] is reported as 107 % of control and the T/C [8] is reported as 111 % of control.

Oc1cccc2c1[O][Sb][O]2 was tested, and the T/C (dose: 4.0 mg/kg/injection, schedule: Q01DX009 (ip), vehicle: Klucel (hydroxypropylcellulose) (HPC)) was 120 % of control, the T/C (dose: 4.0 mg/kg/injection, schedule: Q03HX016 (ip), vehicle: Klucel (hydroxypropylcellulose) (HPC)) was 101 % of control and the T/C (dose: 4.0 mg/kg/injection, schedule: Q03HX024 (ip), vehicle: Klucel (hydroxypropylcellulose) (HPC)) was 103 % of control. For the same compound, the T/C (dose: 8.0 mg/kg/injection, schedule: Q03HX024 (ip), vehicle: Klucel (hydroxypropylcellulose) (HPC)) was 116 % of control, the T/C (dose: 50.0 mg/kg/injection, schedule: Q01DX009 (ip), vehicle: saline) was 166 % of control and the T/C (dose: 64.0 mg/kg/injection, schedule: Q01DX001 (ip), vehicle: Klucel (hydroxypropylcellulose) (HPC)) was 122 % of control. For the same compound, the T/C (dose: 128.0 mg/kg/injection, schedule: Q01DX001 (ip), vehicle: Klucel (hydroxypropylcellulose) (HPC)) was 115 % of control.

For CCOP(O)(=S)OCC.[Gd], the T/C (dose: 100.0 mg/kg/injection, schedule: Q04DX003 (ip), vehicle: Klucel (hydroxypropylcellulose) (HPC)) was 90 % of control, the T/C (dose: 200.0 mg/kg/injection, schedule: Q04DX003 (ip), vehicle: Klucel (hydroxypropylcellulose) (HPC)) was 90 % of control and the T/C (dose: 400.0 mg/kg/injection, schedule: Q04DX003 (ip), vehicle: Klucel (hydroxypropylcellulose) (HPC)) was 90 % of control.

In the case of C=CCOC(=O)CCCC1=NC2=CC=CC3=NC(C)=NC(=N1)N23, the T/C (dose: 50.0 mg/kg/injection, schedule: Q04DX003 (ip), vehicle: saline with Tween-80) is reported as 105 % of control, the T/C (dose: 100.0 mg/kg/injection, schedule: Q04DX003 (ip), vehicle: saline with Tween-80) is reported as 99 % of control and the T/C (dose: 200.0 mg/kg/injection, schedule: Q04DX003 (ip), vehicle: saline with Tween-80) is reported as 91 % of control.

CCOC(=O)C1=C(C)NC(=O)NC1c1ccc(N(C)C)cc1 (stereo unspecified) was tested, and the T/C [9] was 90 % of control, the T/C [10] was 95 % of control and the T/C [11] was 97 % of control.

In the case of O=C1CC(c2ccc(Cl)cc2Cl)Oc2ccc(Cl)cc21 (stereo unspecified), the T/C (dose: 6.25 mg/kg/injection, schedule: Q01DX009 (ip), vehicle: saline with Tween-80) is reported as 95 % of control, the T/C (dose: 12.5 mg/kg/injection, schedule: Q01DX009 (ip), vehicle: saline with Tween-80) is reported as 96 % of control and the T/C (dose: 25.0 mg/kg/injection, schedule: Q01DX009 (ip), vehicle: saline with Tween-80) is reported as 95 % of control. The T/C [3] was 89 % of control, the T/C [4] was 87 % of control and 90 % of control and the T/C [5] was 90 % of control. For the same compound, the T/C (dose: 400.0 mg/kg/injection, schedule: Q01DX009 (ip), vehicle: saline with Tween-80) was 96 % of control.

O=C(O)C(=O)O.O=C(O)C(=O)O.O=C(O)C(=O)O.[Rh] was tested, and the T/C (dose: 200.0 mg/kg/injection, schedule: Q04DX003 (ip), vehicle: water) was 95 % of control.

For CCC[C@H]1N=C(OCC)N[C@@H]1CCC, the T/C (dose: 6.25 mg/kg/injection, schedule: Q01DX005 (ip), vehicle: Klucel (hydroxypropylcellulose) (HPC)) was 108 % of control and the T/C (dose: 12.5 mg/kg/injection, schedule: Q01DX005 (ip), vehicle: Klucel (hydroxypropylcellulose) (HPC)) was 117 % of control.

C=C(C)c1c(C)nc2c(N)nc(N)[n+]([O-])c2[n+]1[O-] was tested, and the T/C (dose: 37.5 mg/kg/injection, schedule: Q01DX009 (ip), vehicle: saline) was 108 % of control, the T/C (dose: 75.0 mg/kg/injection, schedule: Q01DX009 (ip), vehicle: saline) was 118 % of control and the T/C (dose: 150.0 mg/kg/injection, schedule: Q01DX009 (ip), vehicle: saline) was 101 % of control.

In the case of O=C(O)/C=N/NS(=O)(=O)c1cccc(S(=O)(=O)N/N=C/C(=O)O)c1, the T/C (dose: 12.5 mg/kg/injection, schedule: Q01DX009 (ip), vehicle: water) is reported as 119 % of control.

CCS(=O)(=O)OCCF was tested, and the T/C (dose: 0.78 mg/kg/injection, schedule: Q01DX009 (ip), vehicle: saline with Tween-80) was 106 % of control, the T/C (dose: 1.56 mg/kg/injection, schedule: Q01DX009 (ip), vehicle: saline with Tween-80) was 111 % of control and the T/C (dose: 3.12 mg/kg/injection, schedule: Q01DX009 (ip), vehicle: saline with Tween-80) was 106 % of control and 91 % of control.

In the case of CC1=CC(O)C(O)C2(C)C1CC1OC(=O)C(OC3OC(CO)C(O)C(O)C3O)C3C(C)C(O)C4(O)OCC13C42 (stereo unspecified), the T/C (dose: 2.13 mg/kg/injection, schedule: Q01DX005 (ip), vehicle: water) is reported as 101 % of control.

In the case of O=NN(CCCl)C(=O)Nc1c[nH]c2ccccc12, the T/C [1] is reported as 157 % of control, the T/C [2] is reported as 159 % of control and 166 % of control and the T/C (dose: 100.0 mg/kg/injection, schedule: Q01DX009 (ip), vehicle: Klucel (hydroxypropylcellulose) (HPC)) is reported as 166 % of control and 176 % of control. The T/C (dose: 200.0 mg/kg/injection, schedule: Q01DX009 (ip), vehicle: Klucel (hydroxypropylcellulose) (HPC)) was 166 % of control and 175 % of control and the T/C (dose: 400.0 mg/kg/injection, schedule: Q01DX009 (ip), vehicle: Klucel (hydroxypropylcellulose) (HPC)) was 166 % of control and 176 % of control.

For CCCCCCn1c(=O)cc2n(c1=O)CCC2, the T/C [6] was 103 % of control and the T/C [7] was 101 % of control.

N#Cc1cnc(N)c(C#N)c1 was tested, and the T/C [1] was 104 % of control and the T/C [2] was 104 % of control.

In the case of c1ccc2c(c1)[nH]c1c(N3CCOCC3)nnc(N3CCOCC3)c12, the T/C [9] is reported as 99 % of control, the T/C [6] is reported as 103 % of control and the T/C [10] is reported as 98 % of control. The T/C [7] was 96 % of control, the T/C [11] was 98 % of control and the T/C [8] was 90 % of control.

With CN(C)CCOCN1COCC1(C)C the T/C (dose: 25.0 mg/kg/injection, schedule: Q01DX009 (ip), vehicle: saline) was 123 % of control.

For CC1CN=C(c2ccc(NC(=O)c3ccc(C(=O)Nc4ccc(C5=NCC(C)N5)cc4)c(N)c3)cc2)N1 (stereo unspecified), the T/C (dose: 0.5 mg/kg/injection, schedule: Q04DX003 (ip), vehicle: saline) was 100 % of control, the T/C (dose: 1.0 mg/kg/injection, schedule: Q04DX003 (ip), vehicle: saline) was 110 % of control and the T/C (dose: 2.0 mg/kg/injection, schedule: Q04DX003 (ip), vehicle: saline) was 120 % of control. The T/C (dose: 2.5 mg/kg/injection, schedule: Q01DX009 (ip), vehicle: saline with Tween-80) was 195 % of control, the T/C (dose: 5.0 mg/kg/injection, schedule: Q01DX009 (ip), vehicle: saline with Tween-80) was 255 % of control and the T/C (dose: 10.0 mg/kg/injection, schedule: Q01DX009 (ip), vehicle: saline with Tween-80) was 170 % of control. The T/C (dose: 10.0 mg/kg/injection, schedule: Q04DX003 (ip), vehicle: saline with Tween-80) was 159 % of control.

CC1=CC(=O)N2CC(=O)N(C)c3ccc(Cl)cc3C2(c2ccccc2)O1 (stereo unspecified) was tested, and the T/C [9] was 104 % of control, the T/C [10] was 92 % of control and the T/C [11] was 92 % of control.

In the case of C[Si](C)(C)N1[Si](C)(C)N[Si](C)(C)N([Si](C)(C)F)[Si]1(C)C, the T/C [9] is reported as 113 % of control, the T/C [10] is reported as 105 % of control and the T/C [11] is reported as 104 % of control.

Source: PubChem BioAssay AID330 (DTP/NCI, 2004)
